Reference: patent US5843916A, “Cyclic amp analogues, individually and in pairs, to inhibit neoplastic cell growth” (priority 1994, dated 1998)
Entries after “also recorded” stand apart in the source; their conditions may differ. Like-named read-outs stand apart in the source and are kept apart here.

Tests used:
HL-60 Cells = experiment: Cell cycle kinetics of HL-60 cells (Table 17); format: cell-based, human; conditions: for % G2 M: control 8.3; for % G0-G1: control 45.7; for % S: control 46
Experimental: (§1) Briefly, cells were fixed in 70% ethanol and stored at 4° C. before analysis. Nuclear DNA was stained with propidium iodide, 50 μg/ml in phosphate-buffered saline (pH 7.4), for 30 minutes at room temperature. RNase was added to avoid double-helix RNA staining. The DNA content of cells was analyzed by a FACScan flow cytometer coupled with a Hewlett-Packard computer. Cell cycle data analysis was performed by a Cell-FIT program according to the method of Dean (Cell Tissue Kinet. 13: 299-308 (1980)) (Becton Dickinson Immunocytometry Systems). Pulse area versus pulse width gating was performed to exclude doublets from the G2 -M region. For each sample, 20,000 events were stored in list mode. Cell surface antigen analysis was performed by flow cytometry with FACScan using a panel of monoclonal antibodies reactive with either monocytic or myeloid cells.

[1] = system: RI, regulatory subunit of cAMP-dependent protein kinase type I; experiment: Binding affinity for RI (Table 14); conditions: compared with 8-Cl-cAMP
Experimental: (§2) RI and RII are the regulatory subunits of cAMP-dependent protein
(§3) kinase type I and type II, respectively. Site A (Site 2) and Site B
(§4) (RI and RII): the affinities of analogues for Site A and Site B were
(§5) determined by the measurement of kinetic constants (inhibition constant,
(§6) Ki), and the values are expressed as the relative affinity Ki
(§7) (analogue), i.e., the ratio between the apparent inhibition constant for
(§8) cAMP and the analogue, as described in Ogreid et al., Eur. J. Biochem.

[2] = molecular target: T1, RI, regulatory subunit of cAMP-dependent protein kinase type I (Oryctolagus cuniculus, UniProt G1TDN4); experiment: Binding affinity for RI (Table 14)
T1 construct: from tissue
T1 sequence (G1TDN4 1-381): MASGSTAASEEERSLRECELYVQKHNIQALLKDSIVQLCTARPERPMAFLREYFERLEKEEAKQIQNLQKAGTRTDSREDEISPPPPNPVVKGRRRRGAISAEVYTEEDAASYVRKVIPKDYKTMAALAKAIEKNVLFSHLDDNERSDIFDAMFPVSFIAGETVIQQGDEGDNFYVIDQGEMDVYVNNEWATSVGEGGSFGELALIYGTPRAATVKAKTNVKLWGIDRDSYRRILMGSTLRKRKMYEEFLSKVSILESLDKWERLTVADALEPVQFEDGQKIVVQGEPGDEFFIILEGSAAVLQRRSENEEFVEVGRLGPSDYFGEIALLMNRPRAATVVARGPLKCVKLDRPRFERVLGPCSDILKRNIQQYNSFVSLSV
Experimental: as §2, §3, §4, §5, §6, §7, §8

HL-60 leukemia cells = experiment: Surface antigen expression of HL-60 cells (Example 5); format: cell-based, human; conditions: Homo sapiens, HL-60, 72 h
Experimental: as §1
The effect of Rp- and Sp-8-Cl-cAMPS on the expression of differentiation markers in HL-60 cells was examined to determine if the growth-arrested HL-60 cells are more differentiated than untreated cells. […] For each sample, 2×10^4 cells were analyzed. Cell surface antigen analysis was performed by flow cytometry with FACScan. Cell gating was performed using forward and side scatter.

[3] = system: LS-174T human colon carcinoma cells; experiment: Additive growth inhibition with 8-Cl-cAMP (Table 19); format: cell-based
Experimental: The medium was changed every 48 hours.
At desired times, cell counts were performed in duplicate on a Coulter Counter after harvesting cells with gentle trypsinization.
The analogues were added at 24

[4] = molecular target: T2, Protein kinase type II (cAKII) (Bos taurus, UniProt P00515); experiment: Protein kinase activation (Table 15); format: biochemical, bovine (heart); conditions: half-maximum activation; U. M.: unmeasurable
T2 construct: prepared from rabbit skeletal muscle and bovine heart; from tissue; host or cells: bovine heart
T2 sequence (P00515 2-401 limits assumed): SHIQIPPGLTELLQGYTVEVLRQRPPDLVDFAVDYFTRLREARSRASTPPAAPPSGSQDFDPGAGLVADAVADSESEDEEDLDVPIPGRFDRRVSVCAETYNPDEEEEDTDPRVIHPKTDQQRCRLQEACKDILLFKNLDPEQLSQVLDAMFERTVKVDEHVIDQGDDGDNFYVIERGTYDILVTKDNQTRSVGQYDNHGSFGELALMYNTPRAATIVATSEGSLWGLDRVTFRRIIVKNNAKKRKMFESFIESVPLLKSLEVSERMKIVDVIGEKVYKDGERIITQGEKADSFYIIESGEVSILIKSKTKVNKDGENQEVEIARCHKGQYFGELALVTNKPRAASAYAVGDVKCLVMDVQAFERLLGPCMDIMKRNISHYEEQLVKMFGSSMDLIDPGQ
Experimental: (§9) ATP to Kemptide as described by Ogreid et al., Eur. J. Biochem. 150: 219-227 (1985).
(§10) Protein kinases types I (cAKI) and II (cAKII) were
(§11) prepared from rabbit skeletal muscle and bovine heart,
(§12) respectively, as described in D.o slashed.skeland et al. (J. Biol.
(§13) of the protein kinase in Ogreid et al. (Eur. J. Biochem.

[5] = molecular target: T3, Protein kinase type I (cAKI) (Oryctolagus cuniculus, UniProt G1TDN4); experiment: Protein kinase activation (Table 15); format: biochemical, rabbit (skeletal muscle); conditions: half-maximum activation; U. M.: unmeasurable
T3 construct: prepared from rabbit skeletal muscle and bovine heart; from tissue; host or cells: rabbit skeletal muscle
T3 sequence (G1TDN4 1-381): as the sequence (G1TDN4 1-381) above
Experimental: as §9, §10, §11, §12, §13

[6] = system: cAMP-phosphodiesterase (PDE); conditions: no test described; cited from earlier work
[7] = molecular target: T4, RII, regulatory subunit of cAMP-dependent protein kinase type II (Bos taurus, UniProt P00515); experiment: Binding affinity for RII (Table 14)
T4 construct: from tissue
T4 sequence (P00515 whole entry): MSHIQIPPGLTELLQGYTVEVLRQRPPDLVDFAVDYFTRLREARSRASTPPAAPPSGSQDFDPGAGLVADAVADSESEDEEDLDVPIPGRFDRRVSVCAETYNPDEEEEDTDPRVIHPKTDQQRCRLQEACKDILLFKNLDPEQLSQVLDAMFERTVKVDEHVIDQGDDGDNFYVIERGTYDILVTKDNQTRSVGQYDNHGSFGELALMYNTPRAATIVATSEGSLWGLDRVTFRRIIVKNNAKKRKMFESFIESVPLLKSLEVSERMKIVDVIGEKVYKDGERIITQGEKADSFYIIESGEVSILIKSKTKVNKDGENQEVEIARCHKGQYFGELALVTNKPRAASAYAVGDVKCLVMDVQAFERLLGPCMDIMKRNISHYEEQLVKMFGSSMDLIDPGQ
Experimental: as §2, §3, §4, §5, §6, §7, §8

[8] = system: HL-60 human leukemia cells; experiment: Growth inhibition of HL-60 leukemia cells (Example 3, Table 16); format: cell-based; conditions: for IC50: Homo sapiens; for fold less potent than 8-Cl-cAMP: growth inhibition HL-60, day 6
Experimental: HL-60 leukemic cells were obtained from the American Type Culture Collection (Rockville, Md.) and were grown in suspension culture in RPMI 1640 supplemented with 10% heat-inactivated fetal bovine serum, streptomycin (500 μg/ml), penicillin (50 units/ml), and glutamine (1 mM) (Gibco, Grand Island, N.Y.).
Cell counts were performed at desired times on a Coulter Counter.
The IC50 values were determined from the dose-
represent an average value obtained for each analogue
from two or more separate experiments carried out from 3
days or 6 days. Initial cell number, 1 × 10^5 /dish.
Typical numbers of untreated control cells at day 3 and
viability in treated and control cells.

[9] = system: LS-174T human colon carcinoma cells; experiment: Growth inhibition of LS-174T cells (Example 4, Table 18); format: cell-based
Experimental: LS-174T human colon carcinoma cells were obtained from the National Cancer Institute, Division of Cancer Treatment, Bethesda, Md., and were grown in Eagle's minimum essential medium supplemented with 10% heat-inactivated fetal bovine serum, Eagle's minimum essential medium nonessential amino acids, 20 mM 4-(2-hydroxyethyl)-1-piperazineethanesulfonic acid, 2mM glutamine, and penicillin-streptomycin (Gibco). The medium was changed every 48 hours.
LS-174T cells were seeded at a density of 2×10^5 / 60 mm dish. […] At desired times, cell counts were performed in duplicate on a Coulter Counter after harvesting cells with gentle trypsinization.
The percentage growth inhibition values shown at 10
and 50 μM analogue concentrations were determined from
the dose-response curve experiments like those shown in
FIG. 1 and represent an average value obtained for each
analogue from two or more separate experiments. Sp-6-SET-

With `Nc1ncnc2c1nc(Cl)n2[C@@H]1O[C@@H]2CO[P@@](O)(=S)O[C@H]2[C@H]1O` [Rp-8-Cl-cAMPS, Rp-(equatorial exocyclic sulfursubstitution) 8-chloro-adenosine 3': 5'-monophosphorothioate] as the compound, how does the “% G2 M” value (HL-60 Cells; 10 μM, 96 hours) read?
Its value is 9.8%.

What about the “% G0-G1” value (HL-60 Cells; 10 μM, 96 hours) of the same compound?
The value was 43.5%.

What about the “% S” value (HL-60 Cells; 10 μM, 96 hours) of the same compound?
The value was 46.7%.

What about the “% G2 M” value (HL-60 Cells; 50 μM, 96 hours) of the same compound?
Its value is 9.0%.

And the “% G0-G1” value (HL-60 Cells; 50 μM, 96 hours)?
The value was 41.6%.

What about the “% S” value (HL-60 Cells; 50 μM, 96 hours) of the same compound?
Its value is 49.4%.

And the “% G2 M” value (HL-60 Cells; 100 μM, 96 hours)?
Its value is 10.9%.

And the “% G0-G1” value (HL-60 Cells; 100 μM, 96 hours)?
The value was 37.9%.

And the “% S” value (HL-60 Cells; 100 μM, 96 hours)?
The value was 51.2%.

What about the toxic effect (HL-60 Cells; 100 μM, 96 hours, footnote b) of the same compound?
The toxic effect was “Toxic effect”.

And the “cell cycle phase distribution” value (HL-60 Cells; HL-60, 96 hours in Table 17)?
The value was “not appreciably different; also recorded: did not bring about any change in cell cycle phase”.

What about the “affinity for cAMP receptor protein / protein kinase” value [1] of the same compound?
Its value is “reduced affinity for the cAMP receptor protein”.

And the “relative affinity Ki (cAMP)/Ki (analogue), RI Site A” value ([2]; Site A (Site 2))?
The value was 0.0079.

What about the “relative affinity Ki (cAMP)/Ki (analogue), RI Site B” value ([2]; Site B (Site 1)) of the same compound?
Its value is 0.0042.

And the “decrease in affinity for Site A of RI vs corresponding cyclophosphate” value ([2]; vs cyclophosphate)?
Its value is 340 fold.

And the “decrease in affinity for Site B of RI vs corresponding cyclophosphate” value ([2]; vs cyclophosphate)?
Its value is 480 fold.

And the viability at 50 µM (HL-60 leukemia cells; read-out: cell viability)?
Its viability at 50 µM is 90%.

And the fold induction at 50 µM (HL-60 leukemia cells; read-out: increase of HLA-DR over control)?
The fold induction at 50 µM was 2.

What about the fold induction at 50 µM (HL-60 leukemia cells; read-out: increase of Leu-15 over control) of the same compound?
Its fold induction at 50 µM is 3.

And the inhibition at 5 µM ([3]; Homo sapiens, LS174T, 96 h, 5 μM, 4 days)?
Its inhibition at 5 µM is 34%.

What about the inhibition at 10 µM ([3]; Homo sapiens, LS174T, 96 h, 10 μM, 4 days) of the same compound?
Its inhibition at 10 µM is 48%.

What about the inhibition at 200 µM ([3]; Homo sapiens, LS174T, 96 h, 200 μM, 4 days) of the same compound?
The inhibition at 200 µM was 80%.

What about the “effect on growth-inhibitory effect of 8-Cl-cAMP” value ([3]; with 8-Cl-cAMP) of the same compound?
The value was “additive effect”.

What about the “Activation Constant (Ka), cAKII” value [4] of the same compound?
The value was “U. M”.

And the “Activation Constant (Ka), cAKI” value [5]?
Its value is “U. M”.

What about the “hydrolysis by phosphodiesterase” value [6] of the same compound?
The value was “resistant to hydrolysis”.

What about the “relative affinity Ki (cAMP)/Ki (analogue), RII Site A” value ([7]; Site A (Site 2)) of the same compound?
The value was 0.00028.

What about the “relative affinity Ki (cAMP)/Ki (analogue), RII Site B” value ([7]; Site B (Site 1)) of the same compound?
The value was 0.44.

What about the “decrease in affinity for Site A of RII vs corresponding cyclophosphate” value ([7]; vs cyclophosphate) of the same compound?
Its value is 180 fold.

And the “decrease in affinity for Site B of RII vs corresponding cyclophosphate” value ([7]; vs cyclophosphate)?
Its value is 10 fold.

And the “growth inhibitory potency” value ([8]; HL-60)?
The value was “less inhibitory than 8-Cl-cAMP but was more potent than Sp-8-Cl-cAMPS”.

And the IC50 ([8]; HL-60, 72 h, read-out: Growth inhibition (IC50), Day 3)?
Its IC50 is 16 µM.

What about the IC50 ([8]; HL-60, 144 h, read-out: Growth inhibition (IC50), Day 6) of the same compound?
Its IC50 is 3 µM.

And the “fold less potent than 8-Cl-cAMP” value [8]?
Its value is “about 10 fold”.

What about the “fold less potent than 8-Cl-cAMP” value ([8]; listed as Rp-phosphorothioate of 8-Cl-cAMP) of the same compound?
Its value is 10 fold.

And the “growth inhibitory effect greater than that of Sp-8-Cl-cAMPS” value ([8]; vs Sp-8-Cl-cAMPS)?
The value was 3 fold.

And the inhibition at 10 µM ([9]; Homo sapiens, LS174T)?
The inhibition at 10 µM was 48%.

What about the inhibition at 50 µM ([9]; Homo sapiens, LS174T) of the same compound?
The inhibition at 50 µM was 70%.

What about the “growth inhibitory potency” value ([9]; LS-174T) of the same compound?
The value was “greatest inhibition of cell growth”.
